Experimental data reported in the supplement of paper PMC10307832.

Experiments:
Test in all cases: relative viability (nuclei count vs DMSO), 5 days (fraction); higher = more cells survive
NCI-H1755 = tested on: NCI-H1755
Procedure, shortened: (§1)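 Lung cancer cell lines in 1536-well plates were dosed by pin tool the day after seeding, either with one drug alone or with a fixed anchor-drug dose plus five library-drug doses (not always all listed) in √10 steps. After 5 days, cells were fixed and their nuclei stained in one step (final 0.05% Triton X-100, 1% formaldehyde, 1 ug/ml Hoechst), then counted on 4× images. Relative viability is the nuclei count in treated wells divided by that in vehicle wells. Values are medians of duplicate plates.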

EKVX = tested on: EKVX
Procedure, shortened: as §1

HCC-15 = tested on: HCC-15
Procedure, shortened: as §1

HCC-366 = tested on: HCC-366
Procedure, shortened: as §1

LOU-NH91 = tested on: LOU-NH91
Procedure, shortened: as §1

LCLC-103H = tested on: LCLC-103H
Procedure, shortened: as §1

NCI-H1395 = tested on: NCI-H1395
Procedure, shortened: as §1

NCI-H1437 = tested on: NCI-H1437
Procedure, shortened: as §1

NCI-H2023 = tested on: NCI-H2023
Procedure, shortened: as §1

NCI-H1734 = tested on: NCI-H1734
Procedure, shortened: as §1

NCI-H1563 = tested on: NCI-H1563
Procedure, shortened: as §1

Compound: Clc1ccc(Nc2nnc(Cc3ccncc3)c3ccccc23)cc1 [Vatalanib] + C[C@]1(O)C[C@@H](c2nc(-c3ccc4ccc(-c5ccccc5)nc4c3)c3c(N)nccn32)C1 [Linsitinib] (partner 1 µM)
- relative viability (NCI-H1755; first compound 0.04 µM): 0.984
- relative viability (NCI-H1755; first compound 0.1265 µM): 1.04
- relative viability (NCI-H1755; first compound 0.4 µM): 0.995
- relative viability (NCI-H1755; first compound 1.265 µM): 0.991
- relative viability (NCI-H1755; first compound 4 µM): 0.919
- relative viability (EKVX; first compound 0.04 µM): 1.03
- relative viability (EKVX; first compound 0.1265 µM): 0.89
- relative viability (EKVX; first compound 0.4 µM): 0.941
- relative viability (EKVX; first compound 1.265 µM): 0.814
- relative viability (EKVX; first compound 4 µM): 0.776
- relative viability (HCC-15; first compound 0.04 µM): 0.937
- relative viability (HCC-15; first compound 0.1265 µM): 0.911
- relative viability (HCC-15; first compound 0.4 µM): 0.902
- relative viability (HCC-15; first compound 1.265 µM): 0.87
- relative viability (HCC-15; first compound 4 µM): 0.873
- relative viability (HCC-366; first compound 0.04 µM): 0.722
- relative viability (HCC-366; first compound 0.1265 µM): 0.456
- relative viability (HCC-366; first compound 0.4 µM): 0.725
- relative viability (HCC-366; first compound 1.265 µM): 0.542
- relative viability (HCC-366; first compound 4 µM): 0.609
- relative viability (LOU-NH91; first compound 0.04 µM): 1.02
- relative viability (LOU-NH91; first compound 0.1265 µM): 0.921
- relative viability (LOU-NH91; first compound 0.4 µM): 0.757
- relative viability (LOU-NH91; first compound 1.265 µM): 0.913
- relative viability (LOU-NH91; first compound 4 µM): 0.89
- relative viability (LCLC-103H; first compound 0.04 µM): 1.24
- relative viability (LCLC-103H; first compound 0.1265 µM): 1.07
- relative viability (LCLC-103H; first compound 0.4 µM): 1.24
- relative viability (LCLC-103H; first compound 1.265 µM): 1.06
- relative viability (LCLC-103H; first compound 4 µM): 1.05
- relative viability (NCI-H1395; first compound 0.04 µM): 1.14
- relative viability (NCI-H1395; first compound 0.1265 µM): 0.99
- relative viability (NCI-H1395; first compound 0.4 µM): 1.63
- relative viability (NCI-H1395; first compound 1.265 µM): 0.998
- relative viability (NCI-H1395; first compound 4 µM): 0.86
- relative viability (NCI-H1437; first compound 0.04 µM): 1.09
- relative viability (NCI-H1437; first compound 0.1265 µM): 1.03
- relative viability (NCI-H1437; first compound 0.4 µM): 1.14
- relative viability (NCI-H1437; first compound 1.265 µM): 0.956
- relative viability (NCI-H1437; first compound 4 µM): 1.08
- relative viability (NCI-H2023; first compound 0.04 µM): 0.726
- relative viability (NCI-H2023; first compound 0.1265 µM): 0.735
- relative viability (NCI-H2023; first compound 0.4 µM): 0.815
- relative viability (NCI-H2023; first compound 1.265 µM): 0.571
- relative viability (NCI-H2023; first compound 4 µM): 0.705
- relative viability (NCI-H1734; first compound 0.04 µM): 0.971
- relative viability (NCI-H1734; first compound 0.1265 µM): 0.866
- relative viability (NCI-H1734; first compound 0.4 µM): 1.03
- relative viability (NCI-H1734; first compound 1.265 µM): 0.886
- relative viability (NCI-H1734; first compound 4 µM): 0.859
- relative viability (NCI-H1563; first compound 0.04 µM): 1.42
- relative viability (NCI-H1563; first compound 0.1265 µM): 1.27
- relative viability (NCI-H1563; first compound 0.4 µM): 1.24
- relative viability (NCI-H1563; first compound 1.265 µM): 1.12
- relative viability (NCI-H1563; first compound 4 µM): 1.2
